The text below walks through data of article PMC8825254, “Rational design of Striga hermonthica-specific seed germination inhibitors” (Plant Physiology, 2021).

The IC50 is the point on the concentration scale where inhibition reaches its midpoint.

Assay [1] has as its system Striga hermonthica. Briefly: Striga emergence study in infested rice pots under greenhouse conditions. In kind it is in vivo, Striga hermonthica on rice cv IAC165. Particulars: for Striga emergence, average number: twice per week for 4 weeks, 10 weeks after rice planting, mock 26 per pot; for Change in Striga emergence compared to mock: Figure 10B; for Rice plant height, change: Striga-infested pots, Figure 10C. As to the method:
Approximately 6,000 Striga seeds (20 mg) were weighed, mixed with sand/soil mixture (1:2 ratio), and put into a 3-L perforated plastic pot containing 0.5-L clean sand/soil mixture in the bottom. The pots were kept under greenhouse-controlled conditions at 30°C and kept moist with water for Striga preconditioning for 10 d. Formulated KK023-N1 and Triton X-100 were applied (at 100 mL per pot) at 10 and 100 µM concentration. Then three rice seedlings (cv IAC165, 10 d old) were planted in each pot after 24 h of inhibitor application. All the treatments were applied continuously twice per week for 4 weeks. Water with same amount of solvent (Cyclohexanone+Atlas-G) was used as a control. Pots were irrigated with 200 mL of Hoagland’s nutrient solution with low phosphate (4 µM) when needed. The rice plants were allowed to grow under greenhouse conditions for 10 weeks and the emerged Striga plants were counted from each pot. The height of rice plants was also measured to see impact of Striga infestation on host growth.

Assay [2] deals with ShHTL5 (Striga hermonthica, UniProt A0A0M5I297). Briefly: YLG hydrolysis competition assay with ShHTL5. Format: biochemical.
Chain of ShHTL5 (A0A0M5I297 entry or part of it): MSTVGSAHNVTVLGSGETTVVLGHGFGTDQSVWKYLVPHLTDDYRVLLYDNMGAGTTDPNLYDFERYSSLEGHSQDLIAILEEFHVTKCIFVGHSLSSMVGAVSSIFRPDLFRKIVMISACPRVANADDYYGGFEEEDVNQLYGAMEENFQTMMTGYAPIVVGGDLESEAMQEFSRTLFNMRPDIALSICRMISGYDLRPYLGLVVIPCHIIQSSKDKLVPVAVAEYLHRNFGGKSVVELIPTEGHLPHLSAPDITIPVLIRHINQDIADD
Assay [3] concerns the target T1, OsD14 (Oryza sativa subsp. japonica, UniProt Q10QA5).
T1 construct: made in house; host or cells: Escherichia coli BL21 (DE3)
T1 sequence (Q10QA5 1-318): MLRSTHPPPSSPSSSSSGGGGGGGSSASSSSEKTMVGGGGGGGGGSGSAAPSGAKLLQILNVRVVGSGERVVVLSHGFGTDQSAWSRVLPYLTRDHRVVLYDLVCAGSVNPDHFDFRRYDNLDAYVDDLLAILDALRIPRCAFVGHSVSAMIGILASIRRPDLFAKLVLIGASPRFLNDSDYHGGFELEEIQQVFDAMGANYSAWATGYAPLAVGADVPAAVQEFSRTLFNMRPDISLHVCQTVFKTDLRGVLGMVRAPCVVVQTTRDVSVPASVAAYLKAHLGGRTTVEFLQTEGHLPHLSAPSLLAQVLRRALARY
Briefly: YLG hydrolysis competition assay with OsD14. Format: biochemical, rice (Oryza sativa). Particulars: Figure 3D-F; mean ± SD, n = 3; no unit printed with values (x-axis µM); read-out: IC50, OsD14-mediated YLG hydrolysis (Figure 3).

Assay [4] relates to ShHTL7–ShMAX2-CTH interaction. In words: GST pull-down of His-ShHTL7 by CTH of ShMAX2. In kind it is binding, Striga hermonthica. The note with it: 100 µM compound, 100 µM GR24; result in words. As for the experimental part:
Purified GST-CTH of ShMAX2 and GST were bound to the Glutathione Sepharose 4B Beads (GE healthcare). Purified 6× His-ShHTL7 was incubated with 100 μM KK023-N1 and Triton X-100 for 3 h, separately. Then apo ShHTL7 was added to the beads bound by GST-CTH of ShMAX2 in the presence and absence of 100 μM GR24. Similarly, ShHTL7 incubated with KK023-N1 and Triton X-100 were added to the beads bound by GST-CTH of ShMAX2 in the presence of 100 μM GR24. Apo ShHTL7 was added to the beads bound by GST only in the presence of 100 μM GR24 as a control. All the samples were washed with lysis buffer (50-mM Tris–HCl pH 8.0, 200 mM NaCl, 2 mM DTT) three times and then eluted with addition of 20 mM reduced glutathione. Thus, the eluted protein was subjected to Western blot using an antibody specific to 6XHis (Abcam, Cambridge, UK).

Assay [5] has as its target T2, ShHTL7 (Striga hermonthica, UniProt A0A0M3PNA2).
T2 sequence (A0A0M3PNA2 1-271): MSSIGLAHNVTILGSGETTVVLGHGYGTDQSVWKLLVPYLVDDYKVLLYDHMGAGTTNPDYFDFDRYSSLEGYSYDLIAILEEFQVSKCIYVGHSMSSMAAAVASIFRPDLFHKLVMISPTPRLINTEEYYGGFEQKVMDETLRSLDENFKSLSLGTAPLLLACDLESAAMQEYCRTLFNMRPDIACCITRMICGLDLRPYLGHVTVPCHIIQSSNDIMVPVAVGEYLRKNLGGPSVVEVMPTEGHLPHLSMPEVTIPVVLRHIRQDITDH
Briefly: YLG hydrolysis competition assay with ShHTL7. Format: biochemical. As for the experimental part: About 0.33 µM of ShHTL7 protein was used to conduct in vitro hydrolysis of YLG (1 µM) as a substrate in a total volume of 100 µL of phosphate-buffered saline (1× PBS) containing 0.1% DMSO in 96-well black plate (Greiner Kremsmünster, Austria; [Tsuchiya et al., 2015]). The hydrolysis of YLG over time and changes in the fluorescence intensity was measured by SpectraMax i3 (Molecular Devices, San Jose, CA, USA) using an excitation wavelength of 480 nm and detection wavelength of 520 nm and recorded at 10 min intervals for 2 h. YLG in 1× PBS without protein was used as a control. […] Measurement of the fluorescence was conducted in SpectraMax i3 (Molecular Devices) using the above-mentioned method. The relative fluorescence unit was calculated by subtracting the auto-fluorescence of YLG in the buffer from the fluorescence values of YLG in the presence of a protein. The inhibitory curve and IC50 were determined using https://www.aatbio.com/tools/ic50-calculator website.

In assay [6] the target is T2, ShHTL7. Briefly: DSF thermal stability of ShHTL7. In kind it is binding. Particulars: 0 to 100 µM; result in words. As to the method: About 10 µM of ShHTL7 purified protein was incubated with various concentrations of KK023-N1, Triton X-100, or KK094 (ranging from 0 to 100 µM) for 30 min. Then SYPRO Orange (reporter dye) was added to 1× final concentration. The reactions were carried out in 25 µL 1× PBs buffer. The assay was performed on CFX96 Real-Time System (BIO-RAD, Hercules, CA, USA) thermal cycler on 96-well quantitative polymerase chain reaction (qPCR) white plate, and the plate was sealed with adhesive qPCR plate seal to prevent samples evaporation ([Bai et al., 2019]). First, samples were heated to 25°C for 1 min followed by linear increase in the temperature ramp from 25°C to 99°C at a rate of 0.5°C/15 s. The change in the protein folding was monitored by the changes in the fluorescence of the reporter dye, and the data were analyzed by the machine software that plots the inflection point of fluorescence against temperature. Data were exported into Excel, and replicates were averaged to generate the graph.

Turning to `COc1ccc(CCCc2cccc3c2CCN3C(=O)n2ccnn2)cc1` [KK023-N1], in assay [1] (10 µM), the “Striga emergence, average number” value was determined as 20 Striga plants per pot; the “Change in Striga emergence compared to mock” value is on record as -24%; the “Rice plant height, change” value is given as “+17%”. Also, in assay [1] (100 µM), the “Striga emergence, average number” value is on record as 16 Striga plants per pot; the “Change in Striga emergence compared to mock” value stood at 38%; the “Rice plant height, change” value was “+26%”. Also, the inhibition at 50 µM in assay [2] (1 h, 50 µM compound, read-out: Reduction of ShHTL5 hydrolysis activity) turned out to be 20%. Also, the IC50 in assay [2] (read-out: IC50, ShHTL5-mediated YLG hydrolysis) was more than 50 µM. In addition, the “Effect on YLG hydrolysis by ShHTL5” value in assay [2] (result in words) is reported as “did not influence the YLG hydrolysis”. Also, in assay [3], the IC50 was 29.6 ± 3.77 µM. Moreover, in assay [4], the “Effect on GR24-dependent pull-down of His-ShHTL7 by GST-CTH of ShMAX2” value is “could inhibit such interaction”. This compound also showed an IC50 in assay [5] of 1780 nM. For the same compound, in assay [6], the “Effect on SYPRO orange fluorescence peak of ShHTL7” value is listed as “decreased the fluorescence of the SYPRO orange” and the “Effect on melting temperature of ShHTL7” value is listed as “did not affect the melting temperature”.
